Assay [1] concerns the target sucrase-isomaltase (Sus scrofa). Description: Alpha-D-glucosidase inhibitory activity and enzyme inhibition in vitro against porcine sucrase.
The target in assay [2] is maltase-glucoamylase (Sus scrofa). Description: Inhibitory activity against porcine maltase.

pIC50: −log10 of the molar value.

What is called pIC50 is −log10 of the IC50, conventionally taken in molar units. Regarding `CO[C@H]1O[C@H](CO)[C@H](N[C@H]2C[C@](O)(CO)[C@@H](O)[C@H](O)[C@H]2O)[C@H](O)[C@H]1O`, the pIC50 in assay [1] was 6.64; in assay [2], 7.00.

Regarding `CO[C@H]1O[C@H](CO)[C@@H](N[C@H]2C[C@](O)(CO)[C@@H](O)[C@H](O)[C@H]2O)[C@H](O)[C@H]1O`, the values for the pIC50 in assay [1] and in assay [2] were 7.10 and 7.14, respectively.

`OC[C@@]1(O)C[C@H](NC[C@@H](O)c2ccccc2)[C@H](O)[C@H](O)[C@H]1O` [1-Hydroxymethyl-5-(2-hydroxy-2-phenyl-ethylamino)-cyclohexane-1,2,3,4-tetraol] showed a pIC50 in assay [1] of 6.72.

Regarding `OC[C@@]1(O)C[C@H](NC[C@H](O)c2ccccc2)[C@H](O)[C@H](O)[C@H]1O` [1-Hydroxymethyl-5-(2-hydroxy-2-phenyl-ethylamino)-cyclohexane-1,2,3,4-tetraol], in assay [2], the negative-log IC50 (pIC50) is 8.24.

As for `OC[C@@]1(O)C[C@H](NCCc2ccccc2)[C@H](O)[C@@H](O)[C@@H]1O` [1-Hydroxymethyl-5-phenethylamino-cyclohexane-1,2,3,4-tetraol], the pIC50 in assay [1] is 8.64; in assay [2], 7.00.

For the compound `CC(C)(C)c1cc(CN[C@H]2C[C@](O)(CO)[C@@H](O)[C@H](O)[C@H]2O)cc(C(C)(C)C)c1O` [5-(3,5-Di-tert-butyl-4-hydroxy-benzylamino)-1-hydroxymethyl-cyclohexane-1,2,3,4-tetraol], the pIC50 in assay [1] was 8.17; in assay [2] it was 7.37.

For the compound `CC(C)=CCC/C(C)=C/CN[C@H]1C[C@](O)(CO)[C@@H](O)[C@H](O)[C@H]1O` [5-(3,7-Dimethyl-octa-2,6-dienylamino)-1-hydroxymethyl-cyclohexane-1,2,3,4-tetraol], the figures for the negative-log IC50 (pIC50) in assay [1] and in assay [2] were 7.96 and 6.28, respectively.

In the case of `OC[C@@]1(O)C[C@H](NCc2ccc(Br)cc2)[C@H](O)[C@@H](O)[C@@H]1O` [5-(4-Bromo-benzylamino)-1-hydroxymethyl-cyclohexane-1,2,3,4-tetraol], the pIC50 in assay [1] was 7.82; in assay [2], 6.64.

For `OC[C@@]1(O)C[C@H](NCC2CCCCC2)[C@H](O)[C@@H](O)[C@@H]1O` [5-(Cyclohexylmethyl-amino)-1-hydroxymethyl-cyclohexane-1,2,3,4-tetraol], the pIC50 in assay [1] is 8.03; in assay [2] it was 6.62.

`OC[C@@]1(O)C[C@H](NC2CCCCC2)[C@H](O)[C@@H](O)[C@@H]1O` [5-Cyclohexylamino-1-hydroxymethyl-cyclohexane-1,2,3,4-tetraol]: the pIC50 in assay [1] is 7.82; in assay [2], 6.39.

Consider `OCC1=C[C@H](NC(CO)CO)[C@H](O)[C@@H](O)[C@@H]1O` [6-(2-Hydroxy-1-hydroxymethyl-ethylamino)-4-hydroxymethyl-cyclohex-4-ene-1,2,3-triol], for which the pIC50 in assay [1] was 6.74; in assay [2], 5.23.

Regarding `N[C@H]1C[C@](O)(CO)[C@@H](O)[C@H](O)[C@H]1O` [Valiolamine], the pIC50 in assay [1] was 7.31; in assay [2], 5.66.

Values taken from BindingDB's records for doi:10.1021/jm00156a023 (1986).
